Laboratory results taken from US20240109903A1, “SUBSTITUTED HETEROCYCLES FOR TREATING CANCER” (Northwestern University, priority 2022, published 2024).
Where two headings read alike, the source gives them in different places.

Assays:
Assay type in all cases: cell-based
HL-60(TB) = experiment: NCI 60 five-dose screen HL-60(TB); details: Homo sapiens; for CC50: read-out: LC50 (the source's name) (converted)
OVCAR-4 = experiment: NCI 60 five-dose screen OVCAR-4; details: Homo sapiens; for CC50: read-out: LC50 (the source's name) (converted)
A549/ATCC = experiment: NCI 60 five-dose screen A549/ATCC; details: Homo sapiens; for CC50: read-out: LC50 (the source's name) (converted)
HCT-15 = experiment: NCI 60 five-dose screen HCT-15; details: Homo sapiens; for CC50: read-out: LC50 (the source's name) (converted)
SNB-75 = experiment: NCI 60 five-dose screen SNB-75; details: Homo sapiens; for CC50: read-out: LC50 (the source's name) (converted)
SN12C = experiment: NCI 60 five-dose screen SN12C; details: Homo sapiens; for CC50: read-out: LC50 (the source's name) (converted)
T-47D = experiment: NCI 60 five-dose screen T-47D; details: Homo sapiens, T47D; for CC50: read-out: LC50 (the source's name)
HOP-62 = experiment: NCI 60 five-dose screen HOP-62; details: Homo sapiens; for CC50: read-out: LC50 (the source's name) (converted)
SF-539 = experiment: NCI 60 five-dose screen SF-539; details: Homo sapiens; for CC50: read-out: LC50 (the source's name) (converted)
SF-268 = experiment: NCI 60 five-dose screen SF-268; details: Homo sapiens; for CC50: read-out: LC50 (the source's name) (converted)
NCI-H460 = experiment: NCI 60 five-dose screen NCI-H460; details: Homo sapiens; for CC50: read-out: LC50 (the source's name) (converted)
OVCAR-5 = experiment: NCI 60 five-dose screen OVCAR-5; details: Homo sapiens; for CC50: read-out: LC50 (the source's name) (converted)
SK-MEL-2 = experiment: NCI 60 five-dose screen SK-MEL-2; details: Homo sapiens; for CC50: read-out: LC50 (the source's name) (converted)

## O=c1ccc(Cn2c(C(F)(F)F)cc3c(Cl)ncnc32)c[nH]1 [NUCC-0226698]
HL-60(TB)
  GI50: 2.09 µM
  IC50: 3.63 µM
  IC (TGI): 6.03 µM
  CC50: ≥ 100 µM
OVCAR-4
  GI50: 17.8 µM
  IC50: 36.3 µM
  IC (TGI): 44.7 µM
  CC50: ≥ 100 µM
A549/ATCC
  GI50: 64.6 µM
  IC50: 100 µM
  IC (TGI): 100 µM
  CC50: ≥ 100 µM
HCT-15
  GI50: 2.95 µM
  IC50: 3.8 µM
  IC (TGI): 14.8 µM
  CC50: ≥ 100 µM
SNB-75
  GI50: 10.7 µM
  IC50: 24 µM
  IC (TGI): 23.4 µM
  CC50: 50.1 µM
SN12C
  GI50: 6.46 µM
  IC50: 11.7 µM
  IC (TGI): 23.4 µM
  CC50: 69.2 µM
T-47D
  GI50: 30.2 µM
  IC50: 79.4 µM
  IC (TGI): 100 µM
  CC50: ≥ 100 µM
HOP-62
  GI50: 46.8 µM
  IC50: 100 µM
  IC (TGI): 100 µM
  CC50: ≥ 100 µM
SF-539
  GI50: 17.4 µM
  IC50: 32.4 µM
  IC (TGI): 40.7 µM
  CC50: 95.5 µM
SF-268
  GI50: 10.7 µM
  IC50: 20.9 µM
  IC (TGI): 28.8 µM
  CC50: 79.4 µM
NCI-H460
  GI50: 12 µM
  IC50: 16.6 µM
  IC (TGI): 36.3 µM
  CC50: ≥ 100 µM
OVCAR-5
  GI50: 61.7 µM
  IC50: 100 µM
  IC (TGI): 100 µM
  CC50: ≥ 100 µM
SK-MEL-2
  GI50: 17 µM
  IC50: 33.1 µM
  IC (TGI): 32.4 µM
  CC50: 63.1 µM

## FC(F)(F)c1cc2c(Cl)ncnc2n1CCN1CCCCC1 [NUCC-0226679]
HL-60(TB); five-dose
  GI50: 2.09 µM
  IC50: 4.37 µM
  IC (TGI): 7.41 µM
  CC50: ≥ 100 µM
OVCAR-4; five-dose
  GI50: 28.2 µM
  IC50: 70.8 µM
  IC (TGI): 100 µM
  CC50: ≥ 100 µM
A549/ATCC; five-dose
  GI50: 79.4 µM
  IC50: 100 µM
  IC (TGI): 100 µM
  CC50: ≥ 100 µM
HCT-15; five-dose
  GI50: 3.16 µM
  IC50: 4.17 µM
  IC (TGI): 12.9 µM
  CC50: 55 µM
SNB-75; five-dose
  GI50: 10.5 µM
  IC50: 22.9 µM
  IC (TGI): 22.4 µM
  CC50: 47.9 µM
SN12C; five-dose
  GI50: 19.5 µM
  IC50: 34.7 µM
  IC (TGI): 100 µM
  CC50: ≥ 100 µM
T-47D; five-dose
  GI50: 21.9 µM
  IC50: 70.8 µM
  IC (TGI): 100 µM
  CC50: ≥ 100 µM
HOP-62; five-dose
  GI50: 38 µM
  IC50: 100 µM
  IC (TGI): 100 µM
  CC50: ≥ 100 µM
SF-539; five-dose
  GI50: 17 µM
  IC50: 31.6 µM
  IC (TGI): 36.3 µM
  CC50: 75.9 µM
SF-268; five-dose
  GI50: 16.2 µM
  IC50: 30.9 µM
  IC (TGI): 38.9 µM
  CC50: 93.3 µM
NCI-H460; five-dose
  GI50: 18.2 µM
  IC50: 26.3 µM
  IC (TGI): 50.1 µM
  CC50: ≥ 100 µM
OVCAR-5; five-dose
  GI50: 100 µM
  IC50: 100 µM
  IC (TGI): 100 µM
  CC50: ≥ 100 µM
SK-MEL-2; five-dose
  GI50: 16.6 µM
  IC50: 33.9 µM
  IC (TGI): 33.1 µM
  CC50: 66.1 µM
